Test results as given in US20090215777A1, “Pyrimidine Derivatives As HSP90 Inhibitors” (Astex Therapeutics Ltd., priority 2005, published 2009).

biological target: T1, human Hsp90α N-terminal domain (Homo sapiens, UniProt P07900); test: Isothermal titration calorimetry (ITC); format: binding; conditions: 25 mM Tris, 100 mM NaCl, 1 mM MgCl2, 1 mM TCEP, 5% DMSO, pH 7.4
T1 construct: Cloning, expression, and purification of the Human Hsp90α N-terminal domain were performed according to published methods; made in house
Description: The ability of the compounds of the invention to bind to human Hsp90 proteins was determined using isothermal titration calorimetry.
Isothermal titration calorimetry (ITC) experiments were performed with a VP-ITC titration calorimeter (Microcal Inc., Northampton, Mass., USA). […] All solutions were filtered and degassed prior to a titration being carried out. The enthalpy change resulting from each injection of ligand was obtained through integration of the calorimetric signal. Data were analysed using Origin 7.0 (Microcal Software Inc., Northampton, Mass.). Heats of dilution were estimated using the final injections of each individual titration and subtracted before data fitting. Different ITC experimental formats were employed in order to obtain compound dissociation constants (Kd's) over a wide range of affinities. […] In this type of experiment the stoichiometry parameter (N) was locked at 1 for data fitting.

Kd [nM]	SMILES
< 1000	NC(=O)COc1cc(-c2cc(Cl)nc(N)n2)c(Cl)cc1Cl [Example 81, 2-[5-(2-Amino-6-chloro-pyrimidin-4-yl)-2,4-dichloro-phenoxy]-acetamide]
< 1000	Nc1nc(Cl)cc(-c2cc(OCCN3CCOCC3)c(Cl)cc2Cl)n1 [Example 80, 4-Chloro-6-[2,4-dichloro-5-(2-morpholin-4-yl-ethoxy)-phenyl]-pyrimidin-2-yl-amine]
< 1000	Cc1cccc(-c2cc(Cl)nc(N)n2)c1Cl [Example 76, 4-Chloro-6-(2-chloro-3-methyl-phenyl)-pyrimidin-2-yl-amine]
< 1000	COc1ccc(-c2cc(Cl)nc(N)n2)c(Cl)c1 [Example 73, 4-Chloro-6-(2-chloro-4-methoxy-phenyl)-pyrimidin-2-ylamine]
< 1000	CC(C#N)Oc1ccc(-c2cc(Cl)nc(N)n2)c(Cl)c1 (stereo not shown) [Example 75, 2-[4-(2-Amino-6-chloro-pyrimidin-4-yl)-3-chloro-phenoxy]-propionitrile]
< 1000	CC(C)(Oc1ccc(-c2cc(Cl)nc(N)n2)c(Cl)c1)C(=O)OCC1CCNCC1 [Example 83, 2-[4-(2-Amino-6-chloro-pyrimidin-4-yl)-3-chloro-phenoxy]-2-methyl-prop-ionic acid piperidin-4-ylmethyl ester]
< 1000	CCOC(=O)COc1ccc(-c2cc(Cl)nc(N)n2)c(Cl)c1 [Example 66, [4-(2-Amino-6-chloropyrimidin-4-yl)-3-chloro-phenoxy]-acetic acid ethyl ester]
< 1000	CCOC(=O)C(C)(C)Oc1ccc(-c2cc(Cl)nc(N)n2)c(Cl)c1 [Example 68, 2-[4-(2-Amino-6-chloro-pyrimidin-4-yl)-3-chloro-phenoxy]-2-methyl-propionic acid ethyl ester]
< 1000	CCN(CC)CCOc1cc(-c2cc(Cl)nc(N)n2)c(Cl)cc1Cl [Example 79, 4-Chloro-6-[2,4-dichloro-5-(2-diethylamino-ethoxy)-phenyl]-pyrimidin-2-yl-amine]
< 1000	Nc1nc(Cl)cc(-c2cc(O)c(Cl)cc2Cl)n1 [Example 77, 5-(2-Amino-6-chloro-pyrimidin-4-yl)-2,4-dichloro-phenol]
< 1000	CC(C)(C)Cc1cccc(-c2cc(Cl)nc(N)n2)c1Cl [Example 72, 4-Chloro-6-[2-chloro-3-(2,2-dimethyl-propyl)phenyl]-pyrimidin-2-yl-amine]
< 10000	CN(C)CCOc1ccc(-c2cc(Cl)nc(N)n2)c(Cl)c1 [Example 74, 4-Chloro-6-[2-chloro-4-(2-dimethylamino-ethoxy)-phenyl]-pyrimidin-2-yl amine]
< 1000	CC(C)Oc1ccc(-c2cc(Cl)nc(N)n2)c(Cl)c1 [Example 65, 4-Chloro-6-(2-chloro-4-isopropoxy-phenyl)-pyrimidin-2-ylamine]
< 1000	CCOC(=O)C(C)Oc1ccc(-c2cc(Cl)nc(N)n2)c(Cl)c1 (stereo not shown) [Example 67]
< 1000	CC(C)(C)OC(=O)N1CCC(COC(=O)C(C)(C)Oc2ccc(-c3cc(Cl)nc(N)n3)c(Cl)c2)CC1 [Example 82, 4-{2-[4-(2-Amino-6-chloro-pyrimidin-4-yl)-3-chloro-phenoxy]-2-methyl-propionyloxy-methyl}-piperidine-1-carboxylic acid tert-butyl ester]
< 1000	COc1cccc(-c2cc(Cl)nc(N)n2)c1Cl [Example 69, 4-Chloro-6-(2-chloro-3-methoxy-phenyl)-pyrimidin-2-yl-amine]
< 1000	COc1c(CC(C)(C)C)cccc1-c1cc(Cl)nc(N)n1 [Example 71, 4-Chloro-6-[3-(2,2-dimethyl-propyl)-2-methoxy-phenyl]-pyrimidin-2-yl-amine]
< 1000	Nc1nc(Cl)cc(-c2ccc(O)cc2Cl)n1 [Example 64, 4-(2-Amino-6-chloro-pyrimidin-4-yl)-3-chloro-phenol]
< 10000	Nc1ncc(-c2cn[nH]c2)c(-c2ccc(Cl)cc2Cl)n1 [Example 63, 4-(2,4-Dichloro-phenyl)-5-(1H-pyrazol-4-yl)-pyrimidin-2-ylamine]
< 1000	Nc1nc(Cl)cc(-c2cc(OCc3ccccc3)c(Cl)cc2Cl)n1 [Example 78, 4-(5-Benzyloxy-2,4-dichloro-phenyl)-6-chloro-pyrimidin-2-yl-amine]
< 1000	COc1cccc(-c2cc(Cl)nc(N)n2)c1OC [Example 70, 4-Chloro-6-(2,3-dimethoxy-phenyl)-pyrimidin-2-yl-amine]

Second part, the compound before the results:

SMILES	Kd [nM]
COc1cccc(OC)c1-c1cc(Cl)nc(N)n1 [Example 4, 4-Chloro-6-(2,6-dimethoxy-phenyl)-pyrimidin-2-ylamine]	< 1000
CCOc1ccc2ccccc2c1-c1cc(Cl)nc(N)n1 [Example 44, 4-Chloro-6-(2-ethoxy-naphthalen-1-yl)-pyrimidin-2-ylamine]	< 10000
COc1ccc(-c2c(OC)ccc(Br)c2OC)c(OC)c1-c1cc(Cl)nc(N)n1 [Example 46, 4-(3′-Bromo-2,4,2′,6′-tetramethoxy-biphenyl-3-yl)-6-chloro-pyrimidin-2-ylamine]	< 1000
CCOc1ccc(-c2cc(Cl)nc(N)n2)c(Cl)c1 [Example 29]	< 1000
COc1ccc2ccccc2c1-c1cc(Cl)nc(N)n1 [Example 51, 4-Chloro-6-(2-methoxy-naphthalen-1-yl)-pyrimidin-2-ylamine]	< 1000
COc1cccc(OCC2CCOCC2)c1-c1cc(Cl)nc(N)n1 [Example 21, 4-Chloro-6-[2-methoxy-6-(tetrahydro-pyran-4-yl-methoxy)-phenyl]-pyrimidin-2-yl-amine]	< 1000
NCCOc1cccc(Cl)c1-c1cc(Cl)nc(N)n1 [Example 56, 4-[2-(2-Amino-ethoxy)-6-chloro-phenyl]-6-chloro-pyrimidin-2-yl-amine]	< 1000
Nc1nccc(-c2ccc(Cl)cc2Cl)n1 [Example 60, 4-(2,4-Dichloro-phenyl)-pyrimidin-2-ylamine]	< 10000
COc1cc(-c2cc(Cl)nc(N)n2)c(Cl)cc1Cl [Example 61, 4-Chloro-6-(2,4-dichloro-5-methoxy-phenyl)-pyrimidin-2-ylamine]	< 1000
COc1ccc(Cl)c(-c2cc(Cl)nc(N)n2)c1 [Example 49, 4-Chloro-6-(2-chloro-5-methoxy-phenyl)-pyrimidin-2-ylamine]	< 1000
Nc1nc(Cl)cc(-c2ccc(Cl)cc2Cl)n1 [Example 30, 4-Chloro-6-(2,4-dichloro-phenyl)-pyrimidin-2-yl-amine]	< 1000
COc1cccc(OCCN2CCOCC2)c1-c1cc(Cl)nc(N)n1 [Example 48, 4-Chloro-6-[2-methoxy-6-(2-morpholin-4-yl-ethoxy)-phenyl]-pyrimidin-2-ylamine]	< 1000
COc1ccccc1-c1cc(C(F)F)nc(N)n1 [Example 58, 4-Difluoro-methyl-6-(2-methoxy-phenyl)-pyrimidin-2-ylamine]	< 30000
COc1cccc(OC)c1-c1cc(C)nc(N)n1 [Example 1, 4-(2,6-Dimethoxy-phenyl)-6-methyl-pyrimidin-2-ylamine]	< 10000
COc1cccc(OCCN2CCCCC2)c1-c1cc(Cl)nc(N)n1 [Example 52, 4-Chloro-6-[2-methoxy-6-(2-piperidin-1-yl-ethoxy)-phenyl]-pyrimidin-2-ylamine]	< 10000
COc1cc(OC)c(-c2cc(Cl)nc(N)n2)c(OC)c1 [Example 27, 4-Chloro-6-(2,4,6-trimethoxy-phenyl)-pyrimidin-2-yl-amine]	< 1000
COc1cccc(OCC(C)C)c1-c1cc(Cl)nc(N)n1 [Example 47, 4-Chloro-6-(2-isobutoxy-6-methoxy-phenyl)-pyrimidin-2-ylamine]	< 1000
CC(C)(C)OC(=O)NCCCOc1cccc(Cl)c1-c1cc(Cl)nc(N)n1 [Example 53, {3-[2-(2-Amino-6-chloro-pyrimidin-4-yl)-3-chloro-phenoxy]-propyl}-carbamic acid tert-butyl ester]	< 1000
COc1ccc(-c2ccccc2)c(OC)c1-c1cc(Cl)nc(N)n1 [Example 45, 4-Chloro-6-(2,4-dimethoxy-biphenyl-3-yl)-pyrimidin-2-ylamine]	< 10000
Nc1ncc(Br)c(-c2ccc(Cl)cc2Cl)n1 [Example 62, 5-Bromo-4-(2,4-dichloro-phenyl)-pyrimidin-2-ylamine]	< 30000
CN(C)CCOc1cccc(Cl)c1-c1cc(Cl)nc(N)n1 [Example 55, 4-Chloro-6-[2-chloro-6-(2-dimethylamino-ethoxy)-phenyl]-pyrimidin-2-yl amine]	< 1000
COc1cc(Cl)cc(Cl)c1-c1cc(Cl)nc(N)n1 [Example 59, 4-Chloro-6-(2,4-dichloro-6-methoxy-phenyl)-pyrimidin-2-ylamine]	< 1000
CN(C)CCCOc1cccc(Cl)c1-c1cc(Cl)nc(N)n1 [Example 54]	< 1000
Nc1nc(Cl)cc(-c2ccncc2Cl)n1 [Example 50, 4-Chloro-6-(3-chloro-pyridin-4-yl)-pyrimidin-2-ylamine]	< 1000
CC(C)(C)OC(=O)NCCOc1cccc(Cl)c1-c1cc(Cl)nc(N)n1 [Example 57]	< 1000
